Paper PMC11931151, “Inhibition of carbohydrate digestive enzymes by a complementary essential oil blend: in silico and mixture design approaches” (Frontiers in Pharmacology, 2025)
≈ marks a conversion by molar mass, not a printed value.

Target: T1, intestinal α-glucosidase
T1 construct: gene SI; called intestinal, sucrose as substrate (points to sucrase-isomaltase), but a commercial yeast enzyme cannot be excluded; docking model 2QMJ is human maltase-glucoamylase
Test: sucrose hydrolysis, glucose oxidase-peroxidase, absorbance at […] nm
Assay type: biochemical
Settings: phosphate pH 7.5, 37 °C, 20 min pre-incubation, positive control

C[C@H]1O[C@H](O[C@H]2[C@H](O)[C@@H](O)[C@@H](O[C@H]3[C@H](O)[C@@H](O)C(O)O[C@@H]3CO)O[C@@H]2CO)[C@H](O)[C@@H](O)[C@@H]1N[C@H]1C=C(CO)[C@@H](O)[C@H](O)[C@H]1O (stereo partly shown) [acarbose]
IC50: 59 ± 9 µg/mL (≈ 91.4 µM)
